# What was measured:
# Brain COMT = assay: Ex vivo COMT activity in mouse brain homogenates after administration of test compound by gastric tube; design: species or system NMRI mice; conditions: for Brain COMT (% of control) 1h / Brain COMT (% of control) 6h: homogenates of mice brain, dose not given, means±S.E.M. of 4-8 experiments; for Brain COMT (% of control) 1h: 1 h after administration by gastric tube; for Brain COMT (% of control) 6h: 6 h after administration by gastric tube; for activity in the brain: conclusion, statement in words
# COMT = target: T1, COMT (Homo sapiens, UniProt P21964); assay: COMT activity in intact SK-N-SH cells (methylation of adrenaline to metanephrine, HPLC with electrochemical detection); type: cell-based; conditions: concentration of test compound 100 nM, means ±SEM of n=4-8
# T1 construct: COMT activity was evaluated in cell monolayers by the ability to methylate adrenaline; host or cells: SK-N-SH
# T1 sequence (P21964 1-271): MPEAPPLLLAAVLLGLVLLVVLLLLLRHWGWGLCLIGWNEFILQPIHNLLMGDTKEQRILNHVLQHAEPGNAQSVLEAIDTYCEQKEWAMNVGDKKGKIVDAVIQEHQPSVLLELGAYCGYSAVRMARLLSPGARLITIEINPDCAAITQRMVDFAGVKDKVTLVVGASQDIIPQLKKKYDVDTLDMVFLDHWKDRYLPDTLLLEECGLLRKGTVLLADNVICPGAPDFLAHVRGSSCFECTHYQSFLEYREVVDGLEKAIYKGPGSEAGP
# Liver COMT = assay: Ex vivo COMT activity in mouse liver homogenates after administration of test compound by gastric tube; design: species or system NMRI mice; conditions: for Liver COMT (% of control) 1h / Liver COMT (% of control) 6h: homogenates of mice liver, dose not given, means±S.E.M. of 4-8 experiments; for Liver COMT (% of control) 1h: 1 h after administration by gastric tube; for Liver COMT (% of control) 6h: 6 h after administration by gastric tube; for potency upon liver COMT compared with brain COMT: mice, after oral administration, statement in words
Structure (SMILES),Brain COMT (% of control) 1h (Brain COMT),Brain COMT (% of control) 6h (Brain COMT),COMT activity (% of control) (COMT),Liver COMT (% of control) 1h (Liver COMT),Liver COMT (% of control) 6h (Liver COMT),potency upon liver COMT compared with brain COMT (Liver COMT),activity in the brain (Brain COMT)
"Cl.O=C(CCN1CCSCC1)c1cc(O)c(O)c([N+](=O)[O-])c1 [Compound 19, 1-(3,4-Dihydroxy-5-nitro-phenyl)-3-thiomorpholin-4-yl-propan-1-one hydrochloride]",93.0±19.0 % of control,107.0±3.0 % of control,6.8±2.3 % of control,30.3±4.0 % of control,57.9±8.6 % of control,,
"Cl.Cl.O=C(CCN1CCN(c2ccccc2Cl)CC1)c1cc(O)c(O)c([N+](=O)[O-])c1 [Compound 22, 3-[4-(2-Chloro-phenyl)-piperazin-1-yl]-1-(3,4-dihydroxy-5-nitro-phenyl)-propan-1-one dihydrochloride]",94.0±3.0 % of control,96.0±18.0 % of control,0.0±0.0 % of control,54.2±7.5 % of control,71.7±0.4 % of control,,
"Cl.Cl.O=C(CCN1CCN(C(=O)c2ccccc2)CC1)c1cc(O)c(O)c([N+](=O)[O-])c1 [Compound 29, 3-(4-Benzoyl-piperazin-1-yl)-1-(3,4-dihydroxy-5-nitro-phenyl)-propan-1-one dihydrochloride]",,,1.5±0.6 % of control,,,,
"Cl.O=C(CCN1CCc2ccccc2C1)c1cc(O)c(O)c([N+](=O)[O-])c1 [Compound 27, 3-(3,4-Dihydro-1H-isoquinolin-2-yl)-1-(3,4-dihydroxy-5-nitro-phenyl)-propan-1-one hydrochloride]",,,11.4±4.0 % of control,,,,
"Cl.O=C(CC(c1ccccc1)N1CCCC1)c1cc(O)c(O)c([N+](=O)[O-])c1 (stereo not drawn) [Compound 4, 1-(3,4-Dihydroxy-5-nitro-phenyl)-3-phenyl-3-pyrrolidin-1-yl-propan-1-one hydrochloride]",55.0±8.7 % of control,49.6±4.9 % of control,23.8±2.9 % of control,12.0±1.8 % of control,14.4±4.3 % of control,,
"Cl.Cl.Cl.O=C(CN1CCN(c2ccccn2)CC1)c1cc(O)c(O)c([N+](=O)[O-])c1 [Compound 14, 1-(3,4-Dihydroxy-5-nitro-phenyl)-2-(4-pyridin-2-yl-piperazin-1-yl)-ethanone trihydrochloride]",95.4±11.4 % of control,121.2±11.8 % of control,8.5±0.3 % of control,33.6±5.6 % of control,50.3±5.6 % of control,,
"Cl.O=C(CC(c1ccccc1)N1CCOCC1)c1cc(O)c(O)c([N+](=O)[O-])c1 (stereo not drawn) [Compound 5, 1-(3,4-Dihydroxy-5-nitro-phenyl)-3-morpholin-4-yl-3-phenyl-propan-1-one hydrochloride]",38.6±6.4 % of control,57.2±5.1 % of control,40.2±8.7 % of control,16.7±1.6 % of control,35.2±9.6 % of control,equally potent in inhibiting liver and brain COMT activity,
"Cl.N#CC1(c2ccccc2)CCN(CCC(=O)c2cc(O)c(O)c([N+](=O)[O-])c2)CC1 [Compound 15, 1-[3-(3,4-Dihydroxy-5-nitro-phenyl)-3-oxo-propyl]-4-phenyl-piperidine-4-carbonitrile hydrochloride]",93.0±9.0 % of control,122.0±9.0 % of control,2.9±0.3 % of control,51.7±5.9 % of control,37.9±8.4 % of control,,
"Cl.Cl.O=C(CN1CCN(c2cccc(C(F)(F)F)c2)CC1)c1cc(O)c(O)c([N+](=O)[O-])c1 [Compound 13, 1-(3,4-Dihydroxy-5-nitro-phenyl)-2-[4-(3-trifluoromethyl-phenyl)-piperazin-1-yl]-ethanone dihydrochloride]",76.0±9.0 % of control,100.0±10.0 % of control,7.7±0.6 % of control,49.7±3.2 % of control,46.7±2.9 % of control,,
"Cl.O=C(CCN1CCC(Cc2ccccc2)CC1)c1cc(O)c(O)c([N+](=O)[O-])c1 [Compound 24, 3-(4-Benzyl-piperidin-1-yl)-1-(3,4-dihydroxy-5-nitro-phenyl)-propan-1-one hydrochloride]",33.0±8.0 % of control,98.0±2.0 % of control,0.0±0.0 % of control,16.5±1.5 % of control,37.7±3.9 % of control,,
"Cl.O=C(CCN1CCCCC1)c1cc(O)c(O)c([N+](=O)[O-])c1 [Compound 2, 1-(3,4-Dihydroxy-5-nitro-phenyl)-3-piperidin-1-yl-propan-1-one hydrochloride]",80.0±11.0 % of control,95.0±12.0 % of control,7.5±0.6 % of control,24.6±4.8 % of control,56.9±17.7 % of control,much more potent upon liver COMT than brain COMT,limited activity in the brain
"Cl.O=C(CN1CCc2ccccc2C1)c1cc(O)c(O)c([N+](=O)[O-])c1 [Compound 21, 2-(3,4-Dihydro-1H-isoquinolin-2-yl)-1-(3,4-dihydroxy-5-nitro-phenyl)-ethanone hydrochloride]",96.0±8.0 % of control,104.0±17.0 % of control,0.9±0.6 % of control,55.1±5.0 % of control,77.5±18.0 % of control,,
"O=C(COc1cccc2ccccc12)c1cc(O)c(O)c([N+](=O)[O-])c1 [Compound 25, 1-(3,4-Dihydroxy-5-nitro-phenyl)-2-(naphthalen-1-yloxy)-ethanone]",62.8±5.1 % of control,92.4±10.8 % of control,0.0±0.0 % of control,13.7±1.9 % of control,31.1±5.5 % of control,,
"Cl.O=C(CC(c1ccccc1)N1CCCCC1)c1cc(O)c(O)c([N+](=O)[O-])c1 (stereo not drawn) [Compound 3, 1-(3,4-Dihydroxy-5-nitro-phenyl)-3-phenyl-3-piperidin-1-yl-propan-1-one hydrochloride]",81.0±11.0 % of control,71.0±11.0 % of control,7.2±1.9 % of control,13.5±3.2 % of control,13.6±3.2 % of control,much more potent upon liver COMT than brain COMT,limited activity in the brain
"Cl.Cl.O=C(CCN1CCN(c2cccc(C(F)(F)F)c2)CC1)c1cc(O)c(O)c([N+](=O)[O-])c1 [Compound 18, 1-(3,4-Dihydroxy-5-nitro-phenyl)-3-[4-(3-trifluoromethyl-phenyl)-piperazin-1-yl]-propan-1-one dihydrochloride]",86.0±14.0 % of control,86.0±11.0 % of control,4.2±0.2 % of control,18.5±6.8 % of control,26.3±3.9 % of control,much more potent upon liver COMT than brain COMT,limited activity in the brain
"Cl.O=C(CCN1CCCCCC1)c1cc(O)c(O)c([N+](=O)[O-])c1 [Compound 20, 3-Azepan-1-yl-1-(3,4-dihydroxy-5-nitro-phenyl)-propan-1-one hydrochloride]",106.0±9.0 % of control,125.0±5.0 % of control,3.6±0.3 % of control,39.0±2.0 % of control,64.0±12.0 % of control,,
"Cl.O=C(CCN1CCCCCCC1)c1cc(O)c(O)c([N+](=O)[O-])c1 [Compound 16, 3-Azocan-1-yl-1-(3,4-dihydroxy-5-nitro-phenyl)-propan-1-one hydrochloride]",25.0±13.0 % of control,95.0±12.0 % of control,3.2±0.2 % of control,22.1±3.4 % of control,71.7±21.6 % of control,equally potent in inhibiting liver and brain COMT activity,
"COc1ccc(C(=O)N2CCN(CCC(=O)c3cc(O)c(O)c([N+](=O)[O-])c3)CC2)cc1.Cl.Cl [Compound 30, 1-(3,4-Dihydroxy-5-nitro-phenyl)-3-[4-(4-methoxy-benzoyl)-piperazin-1-yl]-propan-1-one dihydrochloride]",,,1.9±1.3 % of control,,,,
"Cc1ccc(SCC(=O)c2cc(O)c(O)c([N+](=O)[O-])c2)cc1 [Compound 28, 1-(3,4-Dihydroxy-5-nitro-phenyl)-2-p-tolylsulphanyl-ethanone]",,,10.0±2.6 % of control,,,,
